The source made the active and inactive calls.
Experiments:
[1] = target: Dual specificity protein kinase CLK2 (Homo sapiens, UniProt P49760); format: functional
[2] = target: Serine/threonine-protein kinase TBK1 (Homo sapiens, UniProt Q9UHD2); test: Navigating the Kinome. Panel member name: TBK1; format: functional
[3] = target: Serine/threonine-protein kinase D3 (Homo sapiens, UniProt O94806); format: functional;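 also: determined within a kinase panel screen, with PRKCN as the panel member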
[4] = target: MAP kinase-activated protein kinase 2 (Homo sapiens, UniProt P49137); format: functional;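 also: measured as one member of a kinome-wide kinase panel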
Sequence of MAP kinase-activated protein kinase 2 (P49137 whole entry): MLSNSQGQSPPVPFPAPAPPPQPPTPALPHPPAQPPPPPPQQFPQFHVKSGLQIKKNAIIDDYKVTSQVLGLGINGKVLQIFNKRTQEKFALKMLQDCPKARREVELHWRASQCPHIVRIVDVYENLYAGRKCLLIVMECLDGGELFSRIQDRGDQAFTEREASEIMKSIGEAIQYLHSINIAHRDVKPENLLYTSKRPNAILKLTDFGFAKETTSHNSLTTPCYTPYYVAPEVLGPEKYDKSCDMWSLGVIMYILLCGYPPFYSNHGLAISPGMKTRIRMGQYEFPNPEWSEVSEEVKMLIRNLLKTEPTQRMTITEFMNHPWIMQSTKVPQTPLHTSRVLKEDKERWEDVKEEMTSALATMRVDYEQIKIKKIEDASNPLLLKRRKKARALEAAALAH

[5] = target: Casein kinase II subunit alpha (Homo sapiens, UniProt P68400); format: functional
Sequence of Casein kinase II subunit alpha (P68400 whole entry, canonical isoform): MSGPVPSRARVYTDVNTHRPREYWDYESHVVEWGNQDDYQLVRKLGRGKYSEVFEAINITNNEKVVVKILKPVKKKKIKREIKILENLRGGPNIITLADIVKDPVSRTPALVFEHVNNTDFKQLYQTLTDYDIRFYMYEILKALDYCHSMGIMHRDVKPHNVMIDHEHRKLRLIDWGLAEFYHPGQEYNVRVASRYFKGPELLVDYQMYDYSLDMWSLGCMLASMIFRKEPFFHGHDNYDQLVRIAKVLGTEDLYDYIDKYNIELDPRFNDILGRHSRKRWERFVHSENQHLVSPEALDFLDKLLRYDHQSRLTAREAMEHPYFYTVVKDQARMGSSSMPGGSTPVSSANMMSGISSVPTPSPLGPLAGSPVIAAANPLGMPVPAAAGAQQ

[6] = target: Casein kinase I isoform alpha (Homo sapiens, UniProt P48729); format: functional
[7] = target: Proto-oncogene tyrosine-protein kinase ROS (Homo sapiens, UniProt P08922); format: functional;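 also: ROS1 tested as one member of a kinome-wide kinase panel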
[8] = target: Homeodomain-interacting protein kinase 2 (Homo sapiens, UniProt Q9H2X6); format: functional;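 also: measured within a kinome-wide kinase profiling panel, HIPK2 being one panel member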
[9] = target: MAP/microtubule affinity-regulating kinase 3 (Homo sapiens, UniProt P27448); format: functional;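 also: MARK3 affinity measured as one member of a kinome panel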
[10] = target: High affinity nerve growth factor receptor (Homo sapiens, UniProt P04629); format: functional;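 also: NTRK1 tested as one member of a kinome-wide profiling panel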
[11] = target: Mitogen-activated protein kinase kinase kinase 20 (Homo sapiens, UniProt Q9NYL2); format: functional
[12] = target: Dual specificity tyrosine-phosphorylation-regulated kinase 3 (Homo sapiens, UniProt O43781); format: functional;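 also: measured as one member of a broad kinase panel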
Activated CDC42 kinase 1 = Activated CDC42 kinase 1 (Homo sapiens, UniProt Q07912); test: Navigating the Kinome. Panel member name: ACK1; format: functional
[13] = target: Dual specificity tyrosine-phosphorylation-regulated kinase 1B (Homo sapiens, UniProt Q9Y463); test: Navigating the Kinome. Panel member name: DYRK1B; format: functional
Sequence of Dual specificity tyrosine-phosphorylation-regulated kinase 1B (Q9Y463 whole entry): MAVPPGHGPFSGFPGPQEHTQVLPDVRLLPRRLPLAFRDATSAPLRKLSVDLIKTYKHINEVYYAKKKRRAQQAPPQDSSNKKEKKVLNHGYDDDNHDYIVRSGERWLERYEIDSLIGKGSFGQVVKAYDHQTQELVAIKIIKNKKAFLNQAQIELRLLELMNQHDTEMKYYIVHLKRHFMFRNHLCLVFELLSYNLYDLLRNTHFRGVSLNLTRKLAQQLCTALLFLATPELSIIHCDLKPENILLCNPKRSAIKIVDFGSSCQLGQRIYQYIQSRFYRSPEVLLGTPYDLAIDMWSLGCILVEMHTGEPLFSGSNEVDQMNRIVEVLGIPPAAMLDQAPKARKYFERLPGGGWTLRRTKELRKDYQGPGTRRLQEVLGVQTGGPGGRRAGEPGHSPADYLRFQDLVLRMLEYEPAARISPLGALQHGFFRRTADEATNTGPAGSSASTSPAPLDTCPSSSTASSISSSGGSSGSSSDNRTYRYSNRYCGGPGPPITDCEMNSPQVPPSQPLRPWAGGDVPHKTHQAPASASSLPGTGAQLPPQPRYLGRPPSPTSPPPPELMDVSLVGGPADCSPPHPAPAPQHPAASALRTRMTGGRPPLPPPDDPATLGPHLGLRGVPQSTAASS

[14] = target: cAMP-dependent protein kinase catalytic subunit PRKX (Homo sapiens, UniProt P51817); format: functional
Sequence of cAMP-dependent protein kinase catalytic subunit PRKX (P51817 whole entry): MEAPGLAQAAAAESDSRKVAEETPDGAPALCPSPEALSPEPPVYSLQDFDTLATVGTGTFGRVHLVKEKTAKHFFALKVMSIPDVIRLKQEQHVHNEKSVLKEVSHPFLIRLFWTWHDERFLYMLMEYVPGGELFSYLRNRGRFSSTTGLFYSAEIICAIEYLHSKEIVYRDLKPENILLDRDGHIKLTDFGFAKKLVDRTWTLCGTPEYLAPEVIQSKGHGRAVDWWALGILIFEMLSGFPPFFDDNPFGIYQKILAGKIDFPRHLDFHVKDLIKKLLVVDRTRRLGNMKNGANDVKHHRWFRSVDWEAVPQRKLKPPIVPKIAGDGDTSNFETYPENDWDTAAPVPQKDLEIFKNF

[15] = target: Leucine-rich repeat serine/threonine-protein kinase 2 (Homo sapiens, UniProt Q5S007); format: functional;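 also: value from a broad kinome-wide panel profiling study in which LRRK2 was one of the kinases tested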
Aurora kinase B = Aurora kinase B (Homo sapiens, UniProt Q96GD4); format: functional
[16] = target: Cyclin-dependent kinase 1 (Homo sapiens, UniProt P06493); format: functional;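 also: Kinome-wide panel profiling, with the target listed as panel member CDC2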
[17] = target: STE20-like serine/threonine-protein kinase (Homo sapiens, UniProt Q9H2G2); format: functional
[18] = target: Fibroblast growth factor receptor 3 (Homo sapiens, UniProt P22607); format: functional
[19] = target: Dual specificity tyrosine-phosphorylation-regulated kinase 1A (Homo sapiens, UniProt Q13627); format: functional;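 also: measured against DYRK1A as one member of a broad kinome profiling panel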
[20] = target: Inhibitor of nuclear factor kappa-B kinase subunit epsilon (Homo sapiens, UniProt Q14164); test: Navigating the Kinome. Panel member name: IKBKE; format: functional
[21] = target: Calcium/calmodulin-dependent protein kinase type II subunit alpha (Homo sapiens, UniProt Q9UQM7); test: Navigating the Kinome. Panel member name: CAMK2A; format: functional
Sequence of Calcium/calmodulin-dependent protein kinase type II subunit alpha (Q9UQM7 whole entry): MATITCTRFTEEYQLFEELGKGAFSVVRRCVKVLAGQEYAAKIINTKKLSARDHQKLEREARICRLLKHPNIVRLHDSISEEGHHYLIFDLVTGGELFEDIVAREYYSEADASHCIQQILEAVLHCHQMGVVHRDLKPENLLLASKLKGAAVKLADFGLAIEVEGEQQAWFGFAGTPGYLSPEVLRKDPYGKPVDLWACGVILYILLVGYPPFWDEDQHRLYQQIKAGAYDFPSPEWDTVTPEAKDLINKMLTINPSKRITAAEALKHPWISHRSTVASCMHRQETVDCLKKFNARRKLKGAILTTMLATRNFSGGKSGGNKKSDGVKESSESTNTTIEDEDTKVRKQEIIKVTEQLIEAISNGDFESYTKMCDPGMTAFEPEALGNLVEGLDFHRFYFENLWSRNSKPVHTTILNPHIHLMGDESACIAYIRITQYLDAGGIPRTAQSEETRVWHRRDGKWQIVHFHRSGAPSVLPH

[22] = target: Mitogen-activated protein kinase 14 (Homo sapiens, UniProt Q16539); format: functional;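 also: part of a kinome-wide panel, MAPK14 entry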
Sequence of Mitogen-activated protein kinase 14 (Q16539 whole entry): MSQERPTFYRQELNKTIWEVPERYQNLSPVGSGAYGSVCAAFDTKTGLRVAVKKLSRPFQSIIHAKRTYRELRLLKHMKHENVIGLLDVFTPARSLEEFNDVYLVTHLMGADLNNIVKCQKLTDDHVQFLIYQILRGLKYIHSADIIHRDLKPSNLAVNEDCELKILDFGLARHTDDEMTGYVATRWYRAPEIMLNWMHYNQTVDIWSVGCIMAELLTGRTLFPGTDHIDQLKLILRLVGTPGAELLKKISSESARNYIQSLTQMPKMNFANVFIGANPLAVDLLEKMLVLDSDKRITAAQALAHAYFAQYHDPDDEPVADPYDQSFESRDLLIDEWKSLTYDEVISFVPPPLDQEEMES

[23] = target: Tyrosine-protein kinase FRK (Homo sapiens, UniProt P42685); format: functional;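 also: FRK tested as one member of a kinome panel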
Sequence of Tyrosine-protein kinase FRK (P42685 whole entry): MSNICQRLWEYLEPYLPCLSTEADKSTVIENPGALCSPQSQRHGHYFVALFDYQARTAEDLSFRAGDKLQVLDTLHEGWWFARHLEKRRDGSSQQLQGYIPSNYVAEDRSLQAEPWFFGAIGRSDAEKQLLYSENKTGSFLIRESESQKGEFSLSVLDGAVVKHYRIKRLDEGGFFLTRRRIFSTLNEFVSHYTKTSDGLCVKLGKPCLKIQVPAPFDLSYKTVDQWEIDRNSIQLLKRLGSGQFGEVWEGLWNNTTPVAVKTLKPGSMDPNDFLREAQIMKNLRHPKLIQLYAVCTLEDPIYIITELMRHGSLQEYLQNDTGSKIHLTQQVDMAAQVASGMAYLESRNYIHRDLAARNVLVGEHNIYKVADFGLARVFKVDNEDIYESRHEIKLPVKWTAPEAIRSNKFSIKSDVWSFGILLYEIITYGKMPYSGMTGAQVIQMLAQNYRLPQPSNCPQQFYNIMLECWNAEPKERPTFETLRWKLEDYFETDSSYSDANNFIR

[24] = target: T1, Mannose-6-phosphate isomerase (Homo sapiens, UniProt P34949); test: MPI inhibition at elevated mannose 6-phosphate – biochemical, fluorescence intensity, high mannose 6-phosphate, primary screen (AID 1220)
T1 sequence (P34949 whole entry): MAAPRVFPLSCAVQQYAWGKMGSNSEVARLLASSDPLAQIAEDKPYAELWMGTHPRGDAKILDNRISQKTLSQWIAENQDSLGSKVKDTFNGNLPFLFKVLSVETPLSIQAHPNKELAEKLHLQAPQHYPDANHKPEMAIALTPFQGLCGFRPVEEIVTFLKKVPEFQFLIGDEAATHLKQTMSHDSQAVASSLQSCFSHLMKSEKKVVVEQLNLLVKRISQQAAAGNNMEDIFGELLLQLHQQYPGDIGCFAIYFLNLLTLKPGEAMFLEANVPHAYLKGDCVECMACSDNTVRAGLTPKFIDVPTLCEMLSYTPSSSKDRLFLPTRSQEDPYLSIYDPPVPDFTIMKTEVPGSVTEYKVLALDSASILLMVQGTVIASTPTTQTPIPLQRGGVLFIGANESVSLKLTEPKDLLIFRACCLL

[25] = target: Serine/threonine-protein phosphatase PP1-alpha catalytic subunit (Homo sapiens, UniProt P62136); test: inhibition of protein phosphatase 1 activity – biochemical, fluorescence, dose response (AID 2394)
Sequence of Serine/threonine-protein phosphatase PP1-alpha catalytic subunit (P62136 whole entry): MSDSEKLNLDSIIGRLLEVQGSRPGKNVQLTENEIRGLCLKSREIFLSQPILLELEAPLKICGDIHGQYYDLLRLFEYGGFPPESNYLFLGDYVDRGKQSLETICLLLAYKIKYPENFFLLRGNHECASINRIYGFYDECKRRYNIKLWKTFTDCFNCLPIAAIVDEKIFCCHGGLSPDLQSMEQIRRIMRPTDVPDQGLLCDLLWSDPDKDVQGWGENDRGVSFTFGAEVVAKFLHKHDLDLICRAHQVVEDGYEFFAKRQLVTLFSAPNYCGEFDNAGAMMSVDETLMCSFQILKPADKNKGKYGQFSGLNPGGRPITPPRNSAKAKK

Protein RecA = target: T2, Protein RecA (Mycobacterium tuberculosis, UniProt P9WHJ3); test: Fluorescence Cell-Free Homogeneous Dose Retest to Identify Inhibitors of RecA-Intein Splicing Activity. [Related pubchem assays (depositor defined):AID2097, AID2223, AID489010, AID492950]; format: functional
T2 sequence (P9WHJ3 whole entry): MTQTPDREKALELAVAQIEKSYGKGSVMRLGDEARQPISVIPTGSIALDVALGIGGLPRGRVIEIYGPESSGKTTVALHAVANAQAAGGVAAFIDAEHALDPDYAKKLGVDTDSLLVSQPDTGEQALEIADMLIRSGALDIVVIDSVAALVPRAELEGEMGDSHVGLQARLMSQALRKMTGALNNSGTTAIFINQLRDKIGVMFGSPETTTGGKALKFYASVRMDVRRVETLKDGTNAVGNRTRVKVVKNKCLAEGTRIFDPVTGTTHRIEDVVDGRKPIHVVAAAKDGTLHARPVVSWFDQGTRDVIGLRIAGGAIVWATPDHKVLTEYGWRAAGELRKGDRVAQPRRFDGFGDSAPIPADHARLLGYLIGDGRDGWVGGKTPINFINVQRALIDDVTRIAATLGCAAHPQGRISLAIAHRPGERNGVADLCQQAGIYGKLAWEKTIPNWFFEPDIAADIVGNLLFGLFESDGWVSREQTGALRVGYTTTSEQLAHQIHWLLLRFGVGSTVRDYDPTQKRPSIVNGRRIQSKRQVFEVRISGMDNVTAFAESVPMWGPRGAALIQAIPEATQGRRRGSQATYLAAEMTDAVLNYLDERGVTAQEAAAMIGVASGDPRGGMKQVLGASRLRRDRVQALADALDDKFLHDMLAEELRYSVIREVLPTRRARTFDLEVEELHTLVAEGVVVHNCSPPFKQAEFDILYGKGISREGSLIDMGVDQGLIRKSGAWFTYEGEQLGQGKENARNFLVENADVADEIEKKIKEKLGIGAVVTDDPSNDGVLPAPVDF

Sequence of Serine/threonine-protein kinase D3 (O94806 whole entry): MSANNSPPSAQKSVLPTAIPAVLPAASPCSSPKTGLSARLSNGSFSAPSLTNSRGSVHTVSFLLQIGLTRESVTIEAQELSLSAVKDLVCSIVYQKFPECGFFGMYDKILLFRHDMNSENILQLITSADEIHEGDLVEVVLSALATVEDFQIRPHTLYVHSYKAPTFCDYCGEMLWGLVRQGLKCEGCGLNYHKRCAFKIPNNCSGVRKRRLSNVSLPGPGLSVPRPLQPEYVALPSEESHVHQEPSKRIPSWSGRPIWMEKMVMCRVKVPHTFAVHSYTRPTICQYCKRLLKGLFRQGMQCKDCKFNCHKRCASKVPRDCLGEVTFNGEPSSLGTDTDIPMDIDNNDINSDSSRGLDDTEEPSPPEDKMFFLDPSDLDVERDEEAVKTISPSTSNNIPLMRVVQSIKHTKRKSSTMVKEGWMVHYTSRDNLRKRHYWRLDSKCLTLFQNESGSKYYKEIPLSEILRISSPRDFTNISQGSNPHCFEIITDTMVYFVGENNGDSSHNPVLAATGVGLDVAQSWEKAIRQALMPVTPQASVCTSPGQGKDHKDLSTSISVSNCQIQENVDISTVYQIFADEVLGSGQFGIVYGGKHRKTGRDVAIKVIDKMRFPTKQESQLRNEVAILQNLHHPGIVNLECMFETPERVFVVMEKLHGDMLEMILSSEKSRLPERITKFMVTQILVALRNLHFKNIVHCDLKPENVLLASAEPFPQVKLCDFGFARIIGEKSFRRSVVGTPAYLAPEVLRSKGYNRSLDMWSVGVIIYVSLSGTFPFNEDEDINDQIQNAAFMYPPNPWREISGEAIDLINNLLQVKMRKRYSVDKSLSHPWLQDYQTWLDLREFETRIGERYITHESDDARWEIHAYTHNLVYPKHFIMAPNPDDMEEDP
Sequence of Dual specificity protein kinase CLK2 (P49760 whole entry): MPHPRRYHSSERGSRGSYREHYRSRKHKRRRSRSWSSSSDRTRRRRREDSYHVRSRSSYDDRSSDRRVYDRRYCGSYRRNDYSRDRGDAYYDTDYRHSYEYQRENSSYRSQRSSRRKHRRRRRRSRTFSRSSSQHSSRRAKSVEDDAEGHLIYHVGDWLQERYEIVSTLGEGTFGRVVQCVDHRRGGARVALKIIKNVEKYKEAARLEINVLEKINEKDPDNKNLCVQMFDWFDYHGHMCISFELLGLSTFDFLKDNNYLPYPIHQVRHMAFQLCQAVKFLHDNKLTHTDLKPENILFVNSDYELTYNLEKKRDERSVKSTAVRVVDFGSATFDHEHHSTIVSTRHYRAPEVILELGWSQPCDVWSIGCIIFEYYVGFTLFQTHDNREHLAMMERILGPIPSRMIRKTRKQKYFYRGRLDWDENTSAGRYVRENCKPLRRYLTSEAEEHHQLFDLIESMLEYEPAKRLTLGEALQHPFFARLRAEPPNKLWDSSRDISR

Clc1cc(-c2c[nH]c3ncccc23)nc(NC2CCCCC2)n1
active: Ki [5] 398 nM | Ki [6] 1.58 µM | Ki [8] 100 nM | Ki [9] 158 nM | Ki [10] 2 µM | Ki [12] 7.94 nM | Ki [13] 7.94 nM | Ki [16] 31.6 nM | Ki [17] 6.31 µM | Ki [19] 20 nM | Ki [21] 3.16 µM
inactive: Ki [1] > 1.26 µM | Ki [2] > 3.16 µM | Ki [3] > 2 µM | Ki [4] > 7.94 µM | Ki [7] > 2 µM | Ki [11] > 7.94 µM | Ki (Activated CDC42 kinase 1) > 3.98 µM | Ki [14] > 1.26 µM | Ki [15] > 2.51 µM | Ki (Aurora kinase B) > 6.31 µM | Ki [18] > 2 µM | Ki [20] > 3.16 µM | Ki [22] > 3.98 µM | Ki [23] > 2.51 µM

CC(C)N(C(=O)Nc1ccc2nsnc2c1)C(C)C
> 50 µM (not active): IC50 [24]

NS(=O)(=O)c1ccc(NC2=CC(=O)C(=O)c3ccccc32)cc1
38.9 µM (not active): IC50 [25]
active: EC50 (Protein RecA) 667 nM

— ChEMBL document CHEMBL1201862, “PubChem BioAssay data set” (2004)
